Experimental data as given in patent publication US9873702B2, “Heterocyclic compounds as biogenic amine transport modulators” (Southern Research Institute, priority 2014, dated 2018).

How the values were obtained:
[1] = molecular target: dopamine transporter (DAT) (Rattus norvegicus, UniProt P23977); assay: Dopamine reuptake ([^3H]dopamine uptake) inhibition in rat brain synaptosomes; conditions: for IC50: DA Uptake EC50 (nM ± SD), rat caudate synaptosomes, 5 nM [^3H]dopamine, 15 min, 25° C., three experiments pooled; for Emax: read-out: DA Uptake Emax (% I ± SD)
dopamine transporter (DAT), sequence (P23977 whole entry): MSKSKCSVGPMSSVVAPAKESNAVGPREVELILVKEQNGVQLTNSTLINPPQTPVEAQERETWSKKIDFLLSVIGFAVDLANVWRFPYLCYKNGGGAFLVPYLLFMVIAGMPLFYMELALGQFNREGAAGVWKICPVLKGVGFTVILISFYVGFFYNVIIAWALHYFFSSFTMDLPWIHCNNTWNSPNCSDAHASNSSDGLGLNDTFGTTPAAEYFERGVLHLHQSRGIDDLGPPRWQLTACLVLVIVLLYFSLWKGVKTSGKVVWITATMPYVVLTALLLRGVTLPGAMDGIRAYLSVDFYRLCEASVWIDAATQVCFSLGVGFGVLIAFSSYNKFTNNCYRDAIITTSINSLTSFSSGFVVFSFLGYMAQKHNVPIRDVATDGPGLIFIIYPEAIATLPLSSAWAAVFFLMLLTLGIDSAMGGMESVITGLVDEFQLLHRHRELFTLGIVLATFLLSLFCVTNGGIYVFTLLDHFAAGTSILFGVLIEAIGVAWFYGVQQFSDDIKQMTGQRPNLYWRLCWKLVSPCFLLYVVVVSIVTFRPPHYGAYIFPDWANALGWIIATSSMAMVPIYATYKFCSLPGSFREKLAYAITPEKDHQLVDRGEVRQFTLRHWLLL
Description: Freshly removed caudate was homogenized in 10% ice-cold sucrose with 12 strokes of a hand-held Potter-Elvehj em homogenizer followed by centrifugation at 1000×g for 10 min. The supernatants were saved on ice and used immediately. Transporter activity was assessed using 5 nM [^3H]dopamine. […] The selectivity of the uptake assay for dopamine active transporter (DAT) was optimized by including 100 nM citalopram and 100 nM desipramine as blockers of serotonin transporter (SERT) and norepinephrine transporter (NET) in the sucrose solution and assay buffer. Uptake inhibition assays were conducted at 25° C. and were initiated by adding 100 μl of tissue to 900 μL assay buffer containing test drug and [^3H]dopamine. Test drugs were diluted in assay buffer containing 1 mg/mL bovine serum albumin. Nonspecific uptake was measured by incubating in the presence of 10 μM indatraline. The reactions were stopped after 15 minutes by rapid vacuum filtration with a cell harvester (BRANDEL) over GF/B filters (Whatman) presoaked in wash buffer maintained at 25° C. (10 mM Tris-HCl, pH 7.4/150 mM NaCl). Filters were rinsed with 6 mL wash buffer and retained tritium was quantified by a MicroBeta liquid scintillation counter (PerkinElmer) after overnight extraction in 0.6 mL of liquid scintillation cocktail (Cytoscint, ICN). The data from three experiments were pooled and fit to a dose-response curve equation (using Kaleidagraph), to yield an Emax and EC50 value.
The data from three experiments were pooled and fit to a dose-response curve equation (using KaleidaGraph; Synergy Software, Reading, Pa.) to yield an Emax and IC50 value.

c1ccc(CCNc2nc(-c3ccc4nccn4c3)nc3ccccc23)cc1 [compound 161, 2-(Imidazo[1,2-A]Pyridin-6-yl)-N-Phenethylquinazolin-4-Amine]
melting point: 246 to 247 °C | IC50 [1]: 168 ± 22 nM | Emax [1]: 51 ± 1%

Cc1cc2nccn2cc1-c1nc(NCC(Cc2ccccc2)Cc2ccccc2)c2ccccc2n1 [compound 182, N-(2-Benzyl-3-Phenylpropyl)-2-(7-Methylimidazo[1,2-A]Pyridin-6-yl)Quinazolin-4-Amine]
melting point: 181 to 184 °C | IC50 [1]: 8.3 ± 0.9 nM | Emax [1]: 75 ± 1%

c1ccc(C(c2ccccc2)N2CC(Nc3nc(-c4ccc5nccn5c4)nc4ccccc34)C2)cc1 [compound 148, N-(1-Benzhydrylazetidin-3-yl)-2-(Imidazo[1,2-A]Pyridin-6-yl)Quinazolin-4-Amine]
melting point: 67 to 69 °C | IC50 [1]: 91 ± 21 nM | Emax [1]: 81 ± 3%

CN(C)c1ncc(-c2cccc(C(CNc3nc(-c4cnc(N(C)C)nc4)nc4ccccc34)c3ccccc3)n2)cn1 (stereo not drawn) [compound 57, 2-(2-(Dimethylamino)Pyrimidin-5-yl)-N-(2-(6-(2-(Dimethylamino)Pyrimidin-5-yl)Pyridin-2-yl)-2-Phenylethyl)Quinazolin-4-Amine]
melting point: 112 °C | IC50 [1]: 55 ± 18 nM | Emax [1]: 61 ± 3%

c1ccc2c(NCC(c3ccncc3)c3ccncc3)nc(N3CCc4[nH]ccc4C3)nc2c1 [compound 174, N-(2,2-Di(pyridin-4-yl)Ethyl)-2-(6,7-Dihydro-1H-Pyrrolo[3,2-C]Pyridin-5(4H)-yl)Quinazolin-4-Amine]
melting point: 224 to 226 °C | IC50 [1]: 31 ± 10 nM | Emax [1]: 88 ± 4%

Cn1cc(-c2nc(NCC(c3ccccc3)c3ccccc3)c3ccccc3n2)cn1 [compound 76, N-(2,2-Diphenylethyl)-2-(1-Methyl-1H-Pyrazol-4-yl)Quinazolin-4-Amine]
melting point: 211 °C | IC50 [1]: 170 nM | Emax [1]: < 100%

c1ccc(C(CNc2nc(-c3cccc4[nH]ncc34)nc3ccccc23)c2ccccc2)cc1 [compound 35, N-(2,2-Diphenylethyl)-2-(1H-Indazol-4-yl)Quinazolin-4-Amine]
melting point: 229 °C | IC50 [1]: 475 ± 85 nM | Emax [1]: 72 ± 3%

c1ccc(C(CNc2nc(N3CCc4[nH]ccc4C3)nc3ccccc23)c2ccccc2)cc1 [compound 163, 2-(6,7-Dihydro-1H-Pyrrolo[3,2-C]Pyridin-5(4H)-yl)-N-(2,2-Diphenylethyl)Quinazolin-4-Amine]
melting point: 166 to 168 °C | IC50 [1]: 3.7 ± 1.5 nM | Emax [1]: 87 ± 6%

CC(=O)N[C@H](CNc1nc(-c2ccc3nccn3c2)nc2ccccc12)c1ccccc1 [compound 149, (S)—N-(2-((2-(Imidazo[1,2-A]Pyridin-6-yl)Quinazolin-4-yl)Amino)-1-Phenylethyl)Acetamide]
melting point: 99 to 101 °C | IC50 [1]: 3720 ± 608 nM | Emax [1]: 80 ± 4%

COCCNc1ncc(-c2nc(NCC(c3ccccc3)c3ccccc3)c3ccccc3n2)cn1 [compound 47, N-(2,2-Diphenylethyl)-2-(2-((2-Methoxyethyl)Amino)Pyrimidin-5-yl)Quinazolin-4-Amine]
melting point: 199 °C | IC50 [1]: 148 ± 40 nM | Emax [1]: 73 ± 4%

Cn1cc2c(-c3nc(NCC(c4ccccc4)c4ccccc4)c4ccccc4n3)cccc2n1 [compound 68, N-(2,2-Diphenylethyl)-2-(2-Methyl-2H-Indazol-4-yl)Quinazolin-4-Amine]
melting point: 121 °C | IC50 [1]: 195 ± 70 nM | Emax [1]: 55 ± 4%

c1ccc(C(CNc2nc(-c3ccc4nccn4c3)nc3ccccc23)c2ccccn2)cc1 (stereo not drawn) [compound 94, 2-(Imidazo[1,2-A]Pyridin-6-yl)-N-(2-Phenyl-2-(Pyridin-2-yl)Ethyl)Quinazolin-4-Amine]
melting point: 238 °C | IC50 [1]: 36 ± 4 nM | Emax [1]: 69 ± 1%

Cc1cc2nccn2cc1-c1nc(NCC(c2ccncc2)c2ccc[nH]2)c2ccccc2n1 (stereo not drawn) [compound 185, 2-(7-Methylimidazo[1,2-A]Pyridin-6-yl)-N-(2-(Pyridin-4-yl)-2-(1H-Pyrrol-2-yl)Ethyl)Quinazolin-4-Amine]
melting point: 214 to 216 °C | IC50 [1]: 11 ± 2 nM | Emax [1]: 71 ± 2%

CC(CNc1nc(-c2ccc3nccn3c2)nc2ccccc12)(c1ccccc1)c1ccccc1 [compound 164, N-(2,2-Diphenylpropyl)-2-(Imidazo[1,2-A]Pyridin-6-yl)Quinazolin-4-Amine]
melting point: 107 to 109 °C | IC50 [1]: 6.4 ± 1.6 nM | Emax [1]: 76 ± 3%

Cc1cc2nccn2cc1-c1nc(NCC(CN(C)C)c2ccccc2)c2ccccc2n1 (stereo not drawn) [compound 192, N1,N1-Dimethyl-N3-(2-(7-Methylimidazo[1,2-A]Pyridin-6-yl)Quinazolin-4-yl)-2-Phenylpropane-1,3-Diamine]
melting point: 250 to 252 °C | IC50 [1]: 10 ± 3 nM | Emax [1]: 77 ± 4%

CCOC(=O)c1cn2cc(-c3nc(NCC(c4ccccc4)c4ccccc4)c4ccccc4n3)ccc2n1 [compound 113, Ethyl 6-(4-((2,2-Diphenylethyl)Amino)Quinazolin-2-yl)Imidazo[1,2-A]Pyridine-2-Carboxylate]
melting point: 204 °C | IC50 [1]: 74 ± 9 nM | Emax [1]: 64 ± 1%

Cc1cc2nccn2cc1-c1nc(NCCc2ccccn2)c2ccccc2n1 [compound 183, (7-Methylimidazo[1,2-A]Pyridin-6-yl)-N-(2-(Pyridin-2-yl)Ethyl)Quinazolin-4-Amine]
melting point: 224 to 228 °C | IC50 [1]: 912 ± 195 nM | Emax [1]: 77 ± 4%

c1ccc(C(CNc2nc(-c3ccncc3)nc3ccccc23)c2ccccc2)cc1 [compound 39, N-(2,2-Diphenylethyl)-2-(Pyridin-4-yl)Quinazolin-4-Amine]
melting point: 242 °C | IC50 [1]: 47 ± 6 nM | Emax [1]: 78 ± 2%

Cc1cc2nccn2cc1-c1nc(NCC(c2ccccc2)C2CC2)c2ccccc2n1 (stereo not drawn) [compound 179, N-(2-Cyclopropyl-2-Phenylethyl)-2-(7-Methylimidazo[1,2-A]Pyridin-6-yl)Quinazolin-4-Amine]
melting point: 236 to 238 °C | IC50 [1]: 3 ± 1 nM | Emax [1]: 80 ± 4%

Cc1nc2ccc(-c3nc(NCC(c4ccccc4)c4ccccc4)c4ccccc4n3)cn2c1C [compound 91, 2-(2,3-Dimethylimidazo[1,2-A]Pyridin-6-yl)-N-(2,2-Diphenylethyl)Quinazolin-4-Amine]
melting point: 232 °C | IC50 [1]: 25 ± 3 nM | Emax [1]: 72 ± 2%

c1ccc(C(CNc2nc(N3CCc4ccccc4C3)nc3ccccc23)c2ccccc2)cc1 [compound 193, 2-(3,4-Dihydroisoquinolin-2(1H)-yl)-N-(2,2-Diphenylethyl)Quinazolin-4-Amine]
melting point: 250 to 253 °C | IC50 [1]: 1.7 ± 0.4 nM | Emax [1]: 77 ± 3%

Cn1ncc2c(-c3nc(NCC(c4ccccc4)c4ccccc4)c4ccccc4n3)cccc21 [compound 65, N-(2,2-Diphenylethyl)-2-(1-Methyl-1H-Indazol-4-yl)Quinazolin-4-Amine]
melting point: 201 °C | IC50 [1]: 155 ± 92 nM | Emax [1]: 50 ± 6%

Cc1cc2nccn2cc1-c1nc(NCC(c2ccccc2)C(C)C)c2ccccc2n1 (stereo not drawn) [compound 169, N-(3-Methyl-2-Phenylbutyl)-2-(7-Methylimidazo[1,2-A]Pyridin-6-yl)Quinazolin-4-Amine]
melting point: 115 to 118 °C | IC50 [1]: 1.8 ± 0.4 nM | Emax [1]: 64 ± 2%

c1ccc(C(CNc2nc(-c3cnc(N4CCCC4)nc3)nc3ccccc23)c2ccccc2)cc1 [compound 37, N-(2,2-Diphenylethyl)-2-(2-(Pyrrolidin-1-yl)Pyrimidin-5-yl)Quinazolin-4-Amine]
melting point: 208 °C | IC50 [1]: 121 ± 27 nM | Emax [1]: 66 ± 3%

Cc1cc2nccn2cc1-c1nc(NCC(c2cccnc2)c2ccc[nH]2)c2ccccc2n1 (stereo not drawn) [compound 156, 2-(7-Methylimidazo[1,2-A]Pyridin-6-yl)-N-(2-(Pyridin-3-yl)-2-(1H-Pyrrol-2-yl)Ethyl)Quinazolin-4-Amine]
melting point: 121 to 125 °C | IC50 [1]: 14 ± 3 nM | Emax [1]: 68 ± 2%

c1ccc(C(Nc2nc(-c3cncnc3)nc3ccccc23)c2ccccc2)cc1 [compound 14, N-Benzhydryl-2-(pyrimidin-5-yl)quinazolin-4-amine]
melting point: 210 °C | IC50 [1]: 234 ± 36 nM | Emax [1]: 74 ± 2%

COc1cc2nc(-c3cccnc3)nc(NCC(c3ccccc3)c3ccccc3)c2cc1OC [compound 28, N-(2,2-Diphenylethyl)-6,7-Dimethoxy-2-(Pyridin-3-yl)Quinazolin-4-Amine]
melting point: 89 °C | IC50 [1]: 620 nM | Emax [1]: < 100%

c1ccc(C(CCNc2nc(-c3ccc4nccn4c3)nc3ccccc23)c2ccccc2)cc1 [compound 87, N-(3,3-Diphenylpropyl)-2-(Imidazo[1,2-A]Pyridin-6-yl)Quinazolin-4-Amine]
melting point: 237 °C | IC50 [1]: 78 ± 9 nM | Emax [1]: 75 ± 1%

c1ccc(C(CNc2nc(-c3cncnc3)nc3ccccc23)c2ccccc2)cc1 [compound 18, N-(2,2-Diphenylethyl)-2-(Pyrimidin-5-yl)Quinazolin-4-Amine]
melting point: 213 to 215 °C | IC50 [1]: 160 nM | Emax [1]: < 100%

c1ccc2c(NCC(c3ccncc3)c3ccncc3)nc(-c3ccc4[nH]ccc4c3)nc2c1 [compound 173, N-(2,2-Di(pyridin-4-yl)Ethyl)-2-(1H-Indol-5-yl)Quinazolin-4-Amine]
melting point: 201 to 202 °C | IC50 [1]: 140 ± 30 nM | Emax [1]: 80 ± 3%

c1ccc(C(CNc2nc(-c3ccc4[nH]ccc4c3)nc3ccccc23)c2cccc(-c3ccc4[nH]ccc4c3)n2)cc1 (stereo not drawn) [compound 58, N-(2-(6-(1H-Indol-5-yl)Pyridin-2-yl)-2-Phenylethyl)-2-(1H-Indol-5-yl)Quinazolin-4-Amine]
melting point: 151 °C | IC50 [1]: 478 ± 154 nM | Emax [1]: 65 ± 5%

COc1ccc2nc(-c3cccnc3)nc(NCC(c3ccccc3)c3ccccc3)c2c1 [compound 59, N-(2,2-Diphenylethyl)-6-Methoxy-2-(Pyridin-3-yl)Quinazolin-4-Amine]
melting point: 77 °C | IC50 [1]: 529 ± 146 nM | Emax [1]: 56 ± 3%
